Laboratory results reported in patent US20230340012A1, “NATURAL AND SYNTHETIC COMPOUNDS FOR TREATING CANCER AND OTHER DISEASES” (PACIFIC ARROW LIMITED, priority 2009, published 2023).
≈ marks a conversion by molar mass, not a printed value. Where “and” joins values, the source holds several entries; their conditions need not be identical. Equal entries are not always repeated.

Assays:
[1] = tested on: Fibronectin; experiment: Fibronectin secretion experiment (Western blot); type: cell-based; conditions: bladder, cervix, prostate, lung, breast, leukemia, colon, liver, bone, brain, skin, ovary, pancreas, mouth, kidney cells; 24 hours
Procedure: Western blot is applied in this invention as a method to detect the specific proteins in treated and untreated cells with compounds in this invention, wherein the cells are bladder, cervix, prostate, lung, breast, leukemia, colon, liver, bone, brain, Skin, ovary, Pancreas(Capan), Mouth(KB), Kidney.
Cells: targeted cells were grown in RPMI 1640 medium. 1.5 million cells were seeded in a T25 flask and grown for 24 hours before drug-treatment.
Drug-treatment: Cells cultures were replaced with fresh RPMI medium containing either 2.5 ul of DMSO (as control) [D]; or 10, 20, 30, 40, 80 ug/ml of tested compounds.
After 24 hours, aliquot of culture medium was taken out for Fibronectin determination (Western blot method).
Cell viability at 24 hours was determined by MTT assay. Cultures were replaced with RPMI medium (5 ml) with MTT and incubated for an hour. The formation of formazan was dissolved in 10 ml of DMSO and OD at 570 nm was measured (MTT units). Western Blot: Spent culture medium was mixed with SDS sample buffer, boiled for 3 minutes before loading to SDS gel. Samples were applied to a 6-10% SDS gel and electrophoresis was conducted with 100 volts for 2 hours. Protein was transferred to a nitrocellulose membrane electrophoretically. The nitrocellulose blot was incubated with the first antibody and second antibody (AP conjugated, Promega S3721). The immuno-bands were developed with BCIP/NBT color development system.
Determination of Western blot band intensity: The band-images of Western blot were captured with a digital camera and the intensity of bands was determined using “Image J” software.

[2] = tested on: ES2; experiment: MTT assay, ovary (ES2); type: cell-based, human
Procedure: (§1) Cells. HTB-9 (bladder), HeLa-S3 (cervix), DU145 (prostate), H460 (lung), MCF-7 (breast), K562 (leukemia), HCT116 (colon), HepG2 (liver), U2OS (bone), T98G (brain), SK-MEL-5 (Skin) and OVCAR 3, ES2 (ovary), Pancreas (Capan), Mouth (KB), Kidney(A498).
(§2) MTT Assay. The procedure for MTT assay followed the method described by Carmichael et al. (1987) with modifications. The cells were seeded into a 96-well plate at for 24 hours before drug-treatment. The cells were then exposed to the drugs for 48, 72, or 96 hours. After the drug-treatment, MTT (0.5 mg/mL) was added to cultures and incubated for an hour. The formazan (product of the reduction of tetrazolium by viable cells) formed and was dissolved with DMSO and the O.D. at 490 nm, and was measured by an ELISA reader. The MTT level of the cells before drug-treatment was also measured (T0). The % cell-growth (%G) is calculated as: %G = (TD-T0 / TC-T0) x 100(1), where TC or TD represents O.D. readings of control or drug-treated cells. When T0 > TD, then the cytotoxicity (LC) expressed as % of the control is calculated as: %LC = (TD-T0 / T0) × 100(2).
Method: A. Cells • -WI38 is a Normal Lung fibroblast. Cells were grown in MEM medium supplemented with 10% FCS, antibiotics and glutamine. 20 K cells were seeded per well (96-welled plate) for one day before drug-treatment • -ES2 is an Ovary Clear cells carcinoma. Cells were grown in RPMI-1640 medium supplemented with 10% FCS, antibiotics and glutamine. 10 K cells were seeded per well (96-welled plate) for one day before drug-treatment.
B. Drug treatment: • -Drug: Tig-S. stored as 1000x stock solution in DMSO. • -Drug concentration used: from 0.15 - 20 ug/ml. • -Drug-treatment was carried out for 2 days (ES2) or 6 days (WI38). For the 6 days incubation, cells were fed with fresh medium (with drug) on day 3 and 5.
C. At the end of the drug-treatment, cytotoxic test was performed with MTT assay.

[3] = tested on: MCF-7; experiment: MTT assay, breast (MCF-7); type: cell-based, human
Procedure: as §1, §2

[4] = tested on: Capan; experiment: MTT assay, pancreas (Capan); type: cell-based, human
Procedure: as §1, §2
• A. Cells: Capan cells are derived from Human pancreas carcinoma (pancreas). Cells were grown in RPMI 1640 medium supplemented with 10% FCS, antibiotics and glutamine. 10000 cells were seeded in a well (96-welled plate) for one day before drug-treatment • B. Drug treatment: • -- Drug: Tig-S (stored as a 1000x stock solution in DMSO) was used. • -- Drug concentration used: from 0.15 - 20 ug/ml. • -- Drug-treatment was carried out for 3 days. • C. At the end of the drug-treatment, cytotoxic test was performed with MTT assay. The percentage of drug-treated cells’ growth as compared to those of the no drug control is determined.

[5] = tested on: U2OS; experiment: MTT assay, bone (U2OS); type: cell-based, human
Procedure: as §1, §2

[6] = tested on: cancer cells; experiment: Inhibition of cancer growth, cancer invasion, cell invasion or cancer cell invasion; type: cell-based
Excerpt: The program is based on our purification methods and biological assays including the MTT assay. See International Application No. PCT/US05/31900, filed Sep. 7, 2005, U.S. Serial No. 11/289,142, filed Nov. 28, 2005, and U.S. Serial No. 11/131551, filed May 17, 2005, and PCT/US2008/002086, 1188-ALA-PCT, filed Feb. 15, 2008, 12/344,682, 1020-B1-US, filed Dec. 29, 2008. The details of Analysis of gene expression of ES2 cells after Y-treatment by Microarray, Data Analysis Methods and Western blot in PCT/US2008/002086, 1188-ALA-PCT, filed Feb. 15, 2008, and the cell invasion experiments methods in International Application PCT/US2010/0042240, filed Jul. 16, 2010.

[7] = tested on: ES2 cells; experiment: Inhibition of cell adhesion, ES2; type: cell-based, human; conditions: for ES2 cells attached to flasks compared to no drug controls / unattached cells alive: 5 ug/ml; for ES2 cells attached to flasks compared to no drug controls: 5 hours; for unattached cells alive: trypan Blue exclusion; for unattached cells alive / cells attached to flasks: ES2 or Hey8A; for cells attached to flasks: 10 ug/ml
Procedure: Methods and Results. ES2 or Hey8A cells were plated in T25 flasks with medium containing 5 ug/ml of compounds selected from structure (2A) including E4A-Tig-R, E4A-Tig-V, E4A-Tig-S, E4A-Tig-N, E4A-Tig-Q, E4A-Tig-T. Cultures were incubated for 5 hours. Attached cells were removed from flasks by trypsinization and the numbers/amounts were counted. Compared to no drug controls, 80 ± 4% of ES2 cells and 60 ± 4% of Hey8A cells were found attached to flasks under this condition. At 5 ug/ml of above compounds, over 90% of unattached cells are alive as determined by the trypan Blue exclusion assay and by their ability to re-attach to flasks when plating in medium without tested compounds. However, with 10 ug/ml tested compounds, less than 40% of cells attached to flasks and many of them are dead cells.

[8] = tested on: A498; experiment: MTT assay, kidney (A498); type: cell-based, human
Procedure: as §1, §2

IC50 of breast (MCF-7) [3] [µg/mL]	IC50 of bone (U2OS) [5] [µg/mL]	Molecule	inhibition of fibronectin secretion [1]	IC50 of ovary (ES2) ([2]; MTT)	IC50 of pancreas (Capan) [4] [µg/mL]	anti-cancer activity [6]	ES2 cells attached to flasks compared to no drug controls [7] [%]	unattached cells alive [7]	cells attached to flasks [7]	IC50 of kidney (A498) [8] [µg/mL]	IC50, ES2 cells ([2]; 2 days drug treatment, MTT) [µg/mL]	IC100, ES2 cells ([2]; MTT OD after treatment equal to OD before treatment, 2 days)	IC50 in ES2 cells ([2]; MTT assay with low doses of Tig-S) [µg/mL]	% of the control cell growth, ES2 ([2]; at 10 ug/ml) [%]	MTT OD as % of the original value, ES2 ([2]; at 10 ug/ml) [%]	IC50, pancreas cancer (Capan) cells' growth ([4]; 3 days)
4.5	4.5	24,28-O-Tigloyl-3β,16α, 21β, 22a, 24β, 28-hexahydroxyolean-12-ene [Tig-R]	20-40%	2.8 ug/ml and about 2.8 ug/ml	2.4	have anti-cancer activities	80 ± 4	over 90%	less than 40%	3.5	–	–	–	–	–	–
13	15	CC=C(C)C(=O)OCC1(C)C(O)CCC2(C)C1CCC1(C)C2CC=C2C3CC(C)(C)C(O)C(O)C3(CO)C(O)CC21C (stereo not drawn) [Tig-N]	20-40%	9 µg/mL	8	have anti-cancer activities	80 ± 4	over 90%	less than 40%	11	–	–	–	–	–	–
20	20	CC=C(C)C(=O)OCC1(C)C(O)CCC2(C)C1CCC1(C)C2CC=C2C3CC(C)(C)C(O)C(OC(=O)C(C)=CC)C3(COC(=O)C(C)=CC)C(O)CC21C (stereo not drawn) [Tig-T]	20-40%	14 µg/mL	10	have anti-cancer activities	80 ± 4	over 90%	less than 40%	15	–	–	–	–	–	–

Molecule	IC50 of breast (MCF-7) [3] [µg/mL]	IC50 of bone (U2OS) [5] [µg/mL]	inhibition of fibronectin secretion [1]	IC50 of ovary (ES2) ([2]; MTT)	IC50 of pancreas (Capan) [4] [µg/mL]	anti-cancer activity [6]	ES2 cells attached to flasks compared to no drug controls [7] [%]	unattached cells alive [7]	cells attached to flasks [7]	IC50 of kidney (A498) [8] [µg/mL]	IC50, ES2 cells ([2]; 2 days drug treatment, MTT) [µg/mL]	IC100, ES2 cells ([2]; MTT OD after treatment equal to OD before treatment, 2 days)	IC50 in ES2 cells ([2]; MTT assay with low doses of Tig-S) [µg/mL]	% of the control cell growth, ES2 ([2]; at 10 ug/ml) [%]	MTT OD as % of the original value, ES2 ([2]; at 10 ug/ml) [%]	IC50, pancreas cancer (Capan) cells' growth ([4]; 3 days)
CC=C(C)C(=O)OCC1(C)C(O)CCC2(C)C1CCC1(C)C2CC=C2C3CC(C)(C)C(OC(=O)C(C)=CC)C(O)C3(CO)C(O)CC21C (stereo not drawn) [Tig-S]	6.3	5.2	20-40%	–	2.9	have anti-cancer activities	80 ± 4	over 90%	less than 40%	4.8	0.3 (≈ 0.447 µM)	0.16 to 0.3 µg/mL and 0.15 to 0.3 µg/mL	~0.1 (≈ 0.149 µM)	10	12	about 1 ug/ml
